According to ChEMBL document CHEMBL5604063, “ASAP - DENV-2 NS2B-NS3 protease fluorescence dose response” (2024):
Values joined by “and” are separate entries in the source; they are usually repeats but may differ in a detail not shown here. Identical values can stand only once. Peptide text beside a SMILES is read from it. * marks the point of attachment. pNA = O=[N+]([O-])c1ccc(N*)cc1; Boc = CC(C)(C)OC(=O)*

Legend:
Genome polyprotein [1] = biological target: T1, Genome polyprotein (dengue virus type 2, UniProt P29990); type: functional, Thailand/16681/1984
Genome polyprotein [2] = biological target: T1, Genome polyprotein; type: functional, Thailand/16681/1984; remark: listed apart in the source

T1 sequence (P29990 1346-1475 limits assumed): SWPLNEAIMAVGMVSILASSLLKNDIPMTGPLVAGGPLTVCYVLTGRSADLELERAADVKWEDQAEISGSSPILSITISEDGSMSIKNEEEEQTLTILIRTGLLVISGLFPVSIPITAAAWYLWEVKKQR
T1 sequence (P29990 1476-2093 limits assumed): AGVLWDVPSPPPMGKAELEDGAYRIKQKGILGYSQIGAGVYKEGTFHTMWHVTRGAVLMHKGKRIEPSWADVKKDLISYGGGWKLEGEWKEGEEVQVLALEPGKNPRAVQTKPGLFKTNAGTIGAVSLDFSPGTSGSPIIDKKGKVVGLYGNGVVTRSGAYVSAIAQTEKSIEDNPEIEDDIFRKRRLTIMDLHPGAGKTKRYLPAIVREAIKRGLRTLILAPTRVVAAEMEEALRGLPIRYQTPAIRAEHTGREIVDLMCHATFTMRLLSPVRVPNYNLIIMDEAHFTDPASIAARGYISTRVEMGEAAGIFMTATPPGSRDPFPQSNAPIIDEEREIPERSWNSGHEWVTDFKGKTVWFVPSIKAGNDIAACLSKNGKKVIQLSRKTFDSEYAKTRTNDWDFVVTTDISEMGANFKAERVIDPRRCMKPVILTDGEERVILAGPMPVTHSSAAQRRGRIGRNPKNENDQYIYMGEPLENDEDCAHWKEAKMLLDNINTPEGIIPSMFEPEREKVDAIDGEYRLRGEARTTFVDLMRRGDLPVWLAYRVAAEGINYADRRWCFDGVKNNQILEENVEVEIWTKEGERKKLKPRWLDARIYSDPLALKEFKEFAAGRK

| Compound | IC50 (Genome polyprotein [1]) | IC50 (Genome polyprotein [2]) |
| --- | --- | --- |
| Cn1cc(C(=O)N2CCC([C@H](NC(=O)OCc3ccccc3)C(=O)Nc3cccc(CN)c3)CC2)cn1 | > 100 µM | > 99.5 µM |
| CC(C)CNC(=O)c1cc(Cl)c(F)cc1NS(=O)(=O)c1ccc(Oc2ccccc2Cl)cc1 | 14.5 µM and 12.6 µM and 12.2 µM and 23.3 µM and 8.64 µM | 6.13 µM |
| N#Cc1cccc(-c2nc3c(C(=O)NCc4ccccn4)cc(Cl)cc3[nH]2)c1 | > 100 µM | – |
| NCc1cccc(NC(=O)c2cc(NC(=O)OCc3ccccc3)cc(C(F)(F)F)c2F)c1 | > 100 µM | > 99.5 µM |
| N#Cc1cccc(-c2nc3c(C(=O)NCc4cccnc4)cc(Cl)cc3[nH]2)c1 | > 100 µM | – |
| NCc1csc2cc(C(=O)Nc3ccc4c(c3)CNC4)ccc12 | 83.1 µM and > 100 µM | – |
| NCc1cccc(NC(=O)c2cc3c(c(NC(=O)OCc4ccccc4)c2)OCC3)c1 | > 100 µM | > 99.5 µM |
| O=C(Nc1cc(Cl)cc(-c2cc3cc(C(=O)O)ncn3c2)c1)OCc1ccccc1 | 50.1 µM | – |
| O=C(Nc1cc(Cl)cc(C(=O)NCc2n[nH]c3c2CNCC3)c1)OCc1ccccc1 | > 100 µM | > 99.5 µM |
| CC(C)N1C(=O)C[C@H](C(=O)Nc2cccc(CN)c2)[C@H]1c1ccc(Cl)c(F)c1 | > 100 µM | > 99.5 µM |
| NCc1cccc(NC(=O)c2cc(Cl)cc(NC(=O)OCc3ccccc3)c2)c1 | > 100 µM | 78.2 µM and 61.5 µM |
| c1cnc2[nH]cc(C3CCN(Cc4c[nH]c5ccncc45)CC3)c2c1 | > 100 µM | > 99.5 µM |
| CN(C)Cc1cccc(NC(=O)[C@H](NC(=O)OCc2ccccc2)c2ccc(OCc3ccccc3)cc2)c1 | > 100 µM | > 99.5 µM |
| NCc1cccc(NC(=O)[C@H](NC(=O)OCc2ccccc2)c2cccc(OC[C@H]3COCCO3)c2)c1 | > 100 µM | > 99.5 µM |
| NCc1cccc(NC(=O)[C@H](NC(=O)OCc2ccccc2)C2CCN(C(=O)C3CCCCC3)CC2)c1 | > 100 µM | > 99.5 µM |
| Cc1cc(-c2ccc([C@@H](NC(=O)OCc3ccccc3)C(=O)Nc3cccc(CN)c3)cc2)cs1 | 30.5 µM and 16.5 µM and 28.3 µM and 18.6 µM and 11.2 µM and 15.5 µM | 4.01 µM |
| NCc1cc(Cl)cc(C(=O)Nc2cccc(-c3nn[nH]n3)c2)c1 | > 100 µM | – |
| NCc1cccc(NC(=O)[C@H](NC(=O)OCc2ccccc2)C2CCN(C(=O)Cc3ccccc3)CC2)c1 | > 100 µM | > 99.5 µM |
| C#Cc1cc(NC(=O)OCc2ccccc2)cc(C(=O)Nc2cccc(CN)c2)c1 | > 100 µM | 81.7 µM |
| c1nc(C2CCN(Cc3cc(C4CCOCC4)[nH]n3)CC2)cs1 | > 100 µM | > 99.5 µM |

| Compound | IC50 (Genome polyprotein [1]) | IC50 (Genome polyprotein [2]) |
| --- | --- | --- |
| COc1cc(NC(=O)OCc2ccccc2)cc(C(=O)Nc2cccc(CN)c2)c1OC | > 100 µM | > 99.5 µM |
| N#Cc1cccc2[nH]cc(CN3CCC(c4cscn4)CC3)c12 | > 100 µM | > 99.5 µM |
| O=C(NCc1cccnc1)[C@H](Nc1ccc2c(c1)CNC2)c1cc(Cl)cc2[nH]ncc12 | > 100 µM | – |
| O=C1Nc2ncccc2C[C@H]1NCc1n[nH]c2ccccc12 | > 100 µM | > 99.5 µM |
| N[C@H]1CCN(c2ccc(NS(=O)(=O)c3ccc(Oc4ccccc4Cl)cc3)cc2)C1 | > 100 µM | – |
| NCc1cccc(NC(=O)[C@H](NC(=O)OCc2ccccc2)C2CCN(C(=O)c3ccccc3)CC2)c1 | > 100 µM | > 99.5 µM |
| O=C(NCC(F)F)[C@H](Nc1ccc2c(n1)CNC2)c1cc(Cl)cc(C2CC2)c1 | – | > 296 µM |
| c1cncc(-c2cc(CN3CCC(c4cscn4)CC3)n[nH]2)c1 | > 100 µM | > 99.5 µM |
| Cc1ncc(NC(=O)OCc2ccccc2)cc1C(=O)Nc1cccc(CN)c1 | > 100 µM | > 99.5 µM |
| NCc1cn(CCNC(=O)c2cc(Cl)cc(NC(=O)OCc3ccccc3)c2)nn1 | > 100 µM | > 99.5 µM |
| NCc1cccc(NC(=O)c2cc(Cl)ccc2NS(=O)(=O)c2ccccc2)c1 | > 100 µM | > 99.5 µM |
| Cc1ocnc1COc1cccc([C@H](NC(=O)OCc2ccccc2)C(=O)Nc2cccc(CN)c2)c1 | > 100 µM | > 99.5 µM |
| N#Cc1cccc(N2CCN(Cc3c[nH]c4ccccc34)CC2)c1 | > 100 µM | > 99.5 µM |
| O=C(Nc1ccc2c(c1)CNC2)c1cc(Cl)cc2c1NCCC2 | > 100 µM | – |
| COc1ccc(S(=O)(=O)n2nc(OC(=O)c3ccccc3)cc2N)cc1 | 2.53 µM and 2.17 µM and 3.95 µM and 3.07 µM (2×) and 2.23 µM and 3.29 µM and 3.81 µM and 2.28 µM | 3.47 µM |
| CSCC[C@H](NC(=O)OC(C)(C)C)C(=O)N1CCC[C@H]1C(=O)Nc1ccc([N+](=O)[O-])cc1 (Boc-Met-Pro-pNA) | – | > 99.5 µM |
| CSCC[C@H](N)C(=O)N1CCC[C@H]1C(=O)Nc1ccc([N+](=O)[O-])cc1 (H-Met-Pro-pNA) | – | > 99.5 µM |
| O=C(Nc1ccccc1)OCc1ccccc1 [BENZYL PHENYLCARBAMATE] | – | > 99.5 µM |
| O=C(Nc1ccccc1)Oc1ccccc1 [PHENYL PHENYLCARBAMATE] | – | > 59.8 µM |
